Laboratory results published in patent US20100280061A1, “NOVEL ANALGESIC THAT BINDS FILAMIN A” (priority 2009, published 2010).

Legend:
mu opiate receptor (MOR) = biological target: T1, mu opiate receptor (MOR) (Rattus norvegicus, UniProt P33535); assay: [35S]GTPγS binding assay using striatal membranes (MOR agonist activity); assay type: biochemical; parameters: MOR agonist activity, [35S]GTPγS binding to Gαo, 0.1 μM / MOR agonist activity, [35S]GTPγS binding to Gαo, 1 μM / MOR agonist activity, [35S]GTPγS binding to Gαo, 1 μM + BFNA: reference not given here; settings: for MOR agonist activity, [35S]GTPγS binding to Gαo, 0.1 μM: 0.1 μM compound; for MOR agonist activity, [35S]GTPγS binding to Gαo, 0.1 μM / MOR agonist activity, [35S]GTPγS binding to Gαo, 1 μM: striatal membranes; for MOR agonist activity, [35S]GTPγS binding to Gαo, 1 μM + BFNA: 1 μM compound + 1 μM β-funaltrexamine; for MOR agonist activity, [35S]GTPγS binding to Gαo, 1 μM: 1 μM compound
T1 construct: from tissue; host or cells: striatal tissue (membrane preparation)
T1 sequence (P33535 whole entry): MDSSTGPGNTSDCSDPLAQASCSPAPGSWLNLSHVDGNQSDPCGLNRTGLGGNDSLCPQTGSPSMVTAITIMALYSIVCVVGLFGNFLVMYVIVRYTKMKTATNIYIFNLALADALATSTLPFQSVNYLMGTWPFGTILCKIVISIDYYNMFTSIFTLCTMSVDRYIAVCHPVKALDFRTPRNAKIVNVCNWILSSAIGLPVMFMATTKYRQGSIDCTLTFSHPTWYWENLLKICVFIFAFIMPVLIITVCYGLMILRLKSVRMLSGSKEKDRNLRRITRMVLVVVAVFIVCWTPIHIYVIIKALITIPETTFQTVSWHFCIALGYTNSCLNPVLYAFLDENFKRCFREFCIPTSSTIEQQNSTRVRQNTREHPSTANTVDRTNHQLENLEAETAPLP
Method: To assess the mu opiate receptor (MOR) agonist activity of positive compounds from the FLNA screening, compounds were tested in a [^35S]GTPγS binding assay using striatal membranes. Our previous study has shown that in striatal membranes, activation of MOR leads to an increase in [^35S]GTPγS binding to Gαo (Wang et al., 2005 Neuroscience 135:247-261).
Striatal tissue was homogenized in 10 volumes of ice cold 25 mM HEPES buffer, pH 7.4, which contained 1 mM EGTA, 100 mM sucrose, 50 μg/ml leupeptin, 0.04 mM PMSF, 2 μg/ml soybean trypsin inhibitor and 0.2% 2-mercaptoethanol. The homogenates were centrifuged at 800×g for 5 minutes and the supernatants were centrifuged at 49,000×g for 20 minutes. The resulting pellets were suspended in 10 volume of reaction buffer, which contained 25 mM HEPES, pH 7.5, 100 mM NaCl, 50 μg/ml leupeptin, 2 μg/ml soybean trypsin inhibitor, 0.04 mM PMSF and 0.02% […].
The resultant striatal membrane preparation (200 μg) was admixed and maintained (incubated) at 30° C. for 5 minutes in reaction buffer as above that additionally contained 1 mM MgCl2 and 0.5 nM [^35S]GTPγS (0.1 μCi/assay, PerkinElmer Life and Analytical Sciences) in a total volume of 250 μl and continued for 5 minutes in the absence or presence of 0.1-10 μM of an assayed compound of interest. The reaction was terminated by dilution with 750 μl of ice-cold reaction buffer that contained 20 mM MgCl2 and 1 mM EGTA and immediate centrifugation at 16,000×g for 5 minutes.
The resulting pellet was solubilized by sonicating for 10 seconds in 0.5 ml of immunoprecipitation buffer containing 0.5% digitonin, 0.2% sodium cholate and 0.5% NP-40. Normal rabbit serum (1 μl) was added to 1 ml of lysate and incubated at 25° C. for 30 minutes. Nonspecific immune complexes were removed by incubation with 25 μl of protein A/G-conjugated agarose beads at 25° C. for 30 minutes followed by centrifugation at 5,000×g at 4° C. for 5 minutes. The supernatant was divided and separately incubated at 25° C. for 30 minutes with antibodies raised against Gαo proteins (1:1,000 dilutions).
The immunocomplexes so formed were collected by incubation at 25° C. for 30 minutes with 40 μl of agarose-conjugated protein A/G beads and centrifugation at 5,000×g at 4° C. for 5 minutes. The pellet was washed and suspended in buffer containing 50 mM Tris-HCl, pH 8.0, and 1% NP-40. The radioactivity in the suspension was determined by liquid scintillation spectrometry. […] DAMGO (H-Tyr-D-Ala-Gly-N-MePhe-Gly-OH; 1 or 10 μM) was used as a positive control.

[1] = biological target: Bn-VAKGL pentapeptide of filamin A (FLNA) (Homo sapiens, UniProt P21333); assay: FITC-NLX-based FLNA screening assay (FLNA peptide binding assay); settings: for Percent inhibition of FITC-NLX binding, 0.01 μM: 0.01 μM compound; for Percent inhibition of FITC-NLX binding, 0.01 μM / Percent inhibition of FITC-NLX binding, 0.1 μM / Percent inhibition of FITC-NLX binding, 1 μM: 10 nM FITC-NLX; for Percent inhibition of FITC-NLX binding, 0.1 μM: 0.1 μM compound; for Percent inhibition of FITC-NLX binding, 1 μM: 1 μM compound
Method: The final assay volume is 100 μl.
Compounds are tested in triplicate or quadruplicate.

SMILES	MOR agonist activity, [35S]GTPγS binding to Gαo, 0.1 μM (mu opiate receptor (MOR)) [%]	MOR agonist activity, [35S]GTPγS binding to Gαo, 1 μM + BFNA (mu opiate receptor (MOR)) [%]	MOR agonist activity, [35S]GTPγS binding to Gαo, 1 μM (mu opiate receptor (MOR)) [%]	Percent inhibition of FITC-NLX binding, 0.01 μM [1] [%]	Percent inhibition of FITC-NLX binding, 0.1 μM [1] [%]	Percent inhibition of FITC-NLX binding, 1 μM [1] [%]	inhibition at 0.01 µM ([1]; read-out: Percent inhibition of FITC-NLX binding, 0.01 μM) [%]	inhibition at 0.1 µM ([1]; read-out: Percent inhibition of FITC-NLX binding, 0.1 μM) [%]	inhibition at 1 µM ([1]; read-out: Percent inhibition of FITC-NLX binding, 1 μM) [%]	% DAMGO + BFNA (mu opiate receptor (MOR); 1 μM + BFNA, relative to DAMGO + BFNA) [%]
COc1c2c(cc3c1C(CC(=O)c1ccc(C#N)cc1)[N+](C)(C)CC3)OCO2 (stereo not shown) [B0001]	128.2	28.0	202.3	–	–	–	–	–	–	–
COc1c2c(cc3c1C(CC(=O)c1ccc(O)c(C)c1)[N+](C)(C)CC3)OCO2 (stereo not shown) [B0002]	165.7	101.4	219.0	40.2	46.4	55.0	–	–	–	–
COc1c2c(cc3c1C(CC(=O)c1ccc(F)c(F)c1)[N+](C)(C)CC3)OCO2 (stereo not shown) [B0003]	103.0	18.6	131.1	–	–	–	45.4	52.9	63.5	–
COc1c2c(cc3c1C(CC(=O)c1ccc(N4CCOCC4)cc1)[N+](C)(C)CC3)OCO2 (stereo not shown) [B0004]	170.3	72.0	231.7	–	–	–	–	–	–	110.0
COc1c2c(cc3c1C(CC(=O)c1ccncc1)[N+](C)(C)CC3)OCO2 (stereo not shown) [B0005]	89.2	45.1	110.4	31.8	34.8	41.7	–	–	–	–
COc1c2c(cc3c1C(CC(=O)c1cccc(C(F)(F)F)c1)[N+](C)(C)CC3)OCO2 (stereo not shown) [B0006]	77.0	18.6	131.3	–	–	–	–	–	–	–
COc1cc(F)ccc1C(=O)CC1c2c(cc3c(c2OC)OCO3)CC[N+]1(C)C (stereo not shown) [B0007]	168.3	64.5	223.3	–	–	–	–	–	–	–
COc1cc(CC(=O)CC2c3c(cc4c(c3OC)OCO4)CC[N+]2(C)C)cc(OC)c1OC (stereo not shown) [B0008]	148.3	46.0	264.1	35.5	40.3	52.8	–	–	–	–
COc1c2c(cc3c1C(CC(=O)Cc1ccc(Br)cc1)[N+](C)(C)CC3)OCO2 (stereo not shown) [B0011]	158.6	78.0	212.6	40.9	50.3	55.8	–	–	–	–
COc1c2c(cc3c1C(CC(=O)Cc1ccc(C#N)cc1)[N+](C)(C)CC3)OCO2 (stereo not shown) [B0012]	167.4	145.1	212.0	39.4	46.9	51.7	–	–	–	–
COc1ccc(CCC(=O)CC2c3c(cc4c(c3OC)OCO4)CC[N+]2(C)C)cc1 (stereo not shown) [B0016]	167.7	72.2	213.6	–	–	–	–	–	–	–
COc1c2c(cc3c1C(CC(=O)CCc1ccc(Cl)cc1)[N+](C)(C)CC3)OCO2 (stereo not shown) [B0017]	99.6	49.6	122.0	28.3	36.6	44.6	–	–	–	–
COc1c2c(cc3c1C(CC(=O)CCc1ccc(F)cc1)[N+](C)(C)CC3)OCO2 (stereo not shown) [B0018]	118.8	45.6	143.0	37.2	43.7	47.6	–	–	–	–
COc1c2c(cc3c1C(CC(=O)/C=C/c1ccc(Cl)cc1)[N+](C)(C)CC3)OCO2 (stereo not shown) [B0019]	101.0	81.4	256.5	34.3	41.0	49.0	–	–	–	–
CCOc1ccc(C(=O)CC2c3c(cc4c(c3OC)OCO4)CC[N+]2(C)C)cc1F (stereo not shown) [B0020]	51.6	24.9	181.6	38.1	45.5	50.6	–	–	–	–
COc1ccc(C(=O)CC2c3c(cc4c(c3OC)OCO4)CC[N+]2(C)C)cc1C.[I-] (stereo not shown) [B0021]	126.9	42.9	256.4	32.5	43.1	47.6	–	–	–	–
COc1cccc(OC)c1C(=O)CC1c2c(cc3c(c2OC)OCO3)CC[N+]1(C)C.[I-] (stereo not shown) [B0023]	166.1	28.4	245.3	28.5	37.8	46.4	–	–	–	–
COc1ccc(C(=O)CC2c3c(cc4c(c3OC)OCO4)CC[N+]2(C)C)cc1 (stereo not shown) [B0024]	155.8	20.2	285.9	34.8	43.4	47.7	–	–	–	–
COc1ccc(CCC(=O)CC2c3c(cc4c(c3OC)OCO4)CCN2C)cc1 (stereo not shown) [B0047]	187.8	68.4	235.6	–	–	–	–	–	–	–
COc1c2c(cc3c1C(CC(=O)Cc1ccccc1C)N(C)CC3)OCO2 (stereo not shown) [B0053]	160.2	134.3	299.8	–	–	–	–	–	–	–
COc1c2c(cc3c1C(CC(=O)Cc1ccccc1F)[N+](C)(C)CC3)OCO2.[I-] (stereo not shown) [B0055]	162.1	117.5	338.5	–	–	–	–	–	–	–
COc1ccc(CCCCC2c3c(cc4c(c3OC)OCO4)CC[N+]2(C)C)cc1 (stereo not shown) [B0056]	174.7	41.8	288.8	–	–	–	–	–	–	–
